Experimental findings from US6884593B1, “Method of identifying properties of substance with respect to human prostaglandin D2 receptors” (BML, Inc., priority 1999, dated 2005) are described below.

Assay [1] deals with T1, human CRTH2 (Homo sapiens, UniProt Q9Y5Y4).
T1 construct: A transformant into which full-length human CRTH2 cDNA is integrated is deposited as B19 cDNA; expressed in transfected cells
T1 sequence (Q9Y5Y4 1-395): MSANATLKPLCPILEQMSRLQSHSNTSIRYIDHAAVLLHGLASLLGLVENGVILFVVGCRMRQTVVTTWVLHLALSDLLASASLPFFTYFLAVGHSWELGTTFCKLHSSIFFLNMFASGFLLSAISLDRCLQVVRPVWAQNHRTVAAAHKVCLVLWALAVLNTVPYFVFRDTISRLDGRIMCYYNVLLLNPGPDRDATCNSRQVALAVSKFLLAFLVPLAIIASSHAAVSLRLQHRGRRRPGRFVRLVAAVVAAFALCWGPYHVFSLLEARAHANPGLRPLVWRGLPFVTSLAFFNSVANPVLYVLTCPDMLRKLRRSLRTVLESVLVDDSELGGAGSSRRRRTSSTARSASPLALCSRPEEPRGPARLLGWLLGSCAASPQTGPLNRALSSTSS
The assay can be described thus: [^3H]PGD2 binding assay, cells expressing human CRTH2 (KB8). Conditions: for order of the degree of the binding affinity of prostanoids to human CRTH2: [^3H]PGD2 binding in the presence of unlabeled prostanoids, KB8, FIG. 3; for degree of binding affinity of human CRTH2 compared with that of the DP receptor: comparison human CRTH2 vs DP receptor. Here is the method:
Human CRTH2 gene expression plasmid pRc/B19 was prepared by means of a method described in detail in Nagata, K. et al., J. Immunol., 162: 1278-1286, 1999 and Japanese Sai-Kohyo (PCT) Patent Publication WO 97/46677. A transformant into which full-length human CRTH2 cDNA is integrated is deposited as B19 cDNA in National Institute of Bioscience and Human-Technology, Agency of Industrial Science and Technology (deposit number: FERM P-15616), and B19 cDNA can be used after approval is obtained from the depositor. When B19 cDNA is digested with restriction enzymes HindIII and XbaI, and is subcloned into the HindIII/XbaI site of plasmid pRc/CMV (product of Invitrogen), the same expression plasmid as the aforementioned pRc/B19 can be prepared. Through electroporation, the pRc/B19 and control plasmid pRc/CMV were genetically introduced into K562 cells, a human erythroblastic leukemia cell strain, and were subjected to selective culture for two to three weeks in the presence of 400 μg/ml of geneticin (product of SIGMA). Among the K562 cells into which the pRc/B19 had been genetically introduced, the survived cells were added to a 96-well microplate (0.3 cells per well), and then cultured for two to three weeks. The proliferated cell clones were subjected to fluorescence staining by use of an anti human CRTH2 antibody (Nagata, K. et al., J. Immunol., 162: 1278-1286, 1999), and clone KB8, in which human CRTH2 was highly expressed, was obtained. The K562 cells into which the control pRc/CMV had been genetically introduced were selected by use of geneticin, and then culture of the resultant cells was continued while polyclones were present (hereinafter the cells will be referred to as “K562/neo”).
(§1) Each of KB8 cells, KD36 cells, and K562/neo cells was resuspended in Hank's balanced salt solution (HBSS, product of Gibco BRL) so as to attain a concentration of 3×10^7 cells/ml. The resultant suspension (0.1 ml) was placed in a 0.5-ml microtube, and then cooled on ice. Subsequently, 1 nM of [^3H]PGD2 (product of Amersham) which had been diluted with HBSS was added to the suspension, to thereby allow reaction to proceed on ice for one hour. The reacted cells were placed carefully onto RPMI1640 medium (1 ml) containing 1 M sucrose and 10% fetal bovine serum, the medium having been placed in an 1.5-ml microtube and cooled by ice, and subjected to centrifugation (10,000 revolutions, three minutes) by use of a micro-centrifuge. […] The radiation activity of the cells bound to [^3H]PGD2 was measured by use of a liquid scintillation counter. The radiation activity of the cells when measured, in a manner similar to that described above, in the presence of unlabeled PGD2 (concentration: 200 times or more that of [^3H]PGD2) was used as an index of non-specific binding. […] In contrast, the specific binding of [^3H]PGD2 to KB8 or KD36 is observed.
(§2) [^3H]PGD2 binding assay described in Example 3 was carried out in the presence of various unlabeled prostanoids (products of Cayman), and the binding affinity of human CRTH2 to various prostanoids was evaluated.

The target in assay [2] is T2, DP receptor (Homo sapiens, UniProt Q13258).
T2 construct: the coding region of the human DP receptor was amplified through PCR; expressed in transfected cells; cDNA from human small intestine poly(A)+ RNA
T2 sequence (Q13258 1-359): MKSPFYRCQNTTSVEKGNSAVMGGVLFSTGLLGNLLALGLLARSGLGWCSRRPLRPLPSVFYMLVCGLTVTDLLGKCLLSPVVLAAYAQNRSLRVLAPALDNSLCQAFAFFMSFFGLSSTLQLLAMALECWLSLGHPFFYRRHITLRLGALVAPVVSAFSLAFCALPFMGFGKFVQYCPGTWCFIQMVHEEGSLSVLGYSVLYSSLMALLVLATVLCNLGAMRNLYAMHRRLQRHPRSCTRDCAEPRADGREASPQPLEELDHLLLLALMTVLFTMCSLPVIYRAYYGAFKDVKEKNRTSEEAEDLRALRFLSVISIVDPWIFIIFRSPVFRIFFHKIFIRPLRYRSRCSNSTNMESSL
Put plainly: [^3H]PGD2 binding assay, cells expressing DP receptor (KD36). Conditions: [^3H]PGD2 binding in the presence of unlabeled prostanoids, KD36, FIG. 3. Here is the method: Human DP receptor cDNA was cloned through RT-PCR on the basis of the nucleotide sequence of human DP receptor cDNA described in Boie, Y. et al., J. Biol. Chem., 270: 18910-18916, 1995 and Japanese Kohyo (PCT) Patent Publication No. 10-507930. Specifically, the cDNA was prepared by use, as an template, of poly(A)+RNA (product of Clonetech) of the human small intestine in which the human DP receptor is highly expressed, and by use of oligo (dT) primer (product of Pharmacia) and MMLV reverse transcriptase (product of Pharmacia). Subsequently, the coding region of the human DP receptor was amplified through PCR (35 heat cycles, each cycle consisting of heating at 94° C. for 1 minute, at 68° C. for 1 minute, and at 72° C. for 1 minute) by use of a forward primer (5′-[…]: SEQ No. 1) containing a restriction enzyme HindIII site, and a reverse primer (5′-[…]: SEQ No. 2) containing an XbaI site. The resultant PCR product was digested with HindIII and XbaI, and subcloned into the HindIII/XbaI site of pRc/CMV. The thus-prepared human DP receptor expression plasmid was introduced into a K562 cell in a manner similar to that described in Example 1, and subjected to selection by use of geneticin and to cloning. The proliferated clones were subjected to the below-described [^3H]PGD2 binding assay, to thereby obtain clone KD36 in which the DP receptor is highly expressed.
as §1, §2

Assay [3] has as its target T1, human CRTH2. The assay can be described thus: Down modulation of human CRTH2 molecules from cell surface, KB8 cells. It is filed as cell-based. Conditions: 37° C. for one hour, flow cytometer, FIG. 4. As to the method: KB8 cells were suspended in RPMI1640 medium containing 10% fetal bovine serum so as to attain a concentration of 10^6 cells/ml, and cultured at 37° C. for one hour in the presence of a test sample. After completion of culturing, the cells were washed twice with HBSS through centrifugation, to thereby remove cell-free part of the sample. Subsequently, the resultant cells were resuspended in HBSS containing 0.5% bovine serum albumin and 0.05% NaN3, and the resultant suspension was subjected to fluorescence staining by use of anti CRTH2 monoclonal antibody HM16 and phycoerythrin-labeled anti rat immunoglobulin antibody. The average fluorescence intensity of the stained cells was measured by use of a flow cytometer (product of Becton Dickinson), and the fluorescence intensity of the cells treated with the sample was compared with that of non-treated cells (control).
Background: A flow cytometer gives signals particle by particle.

The target in assay [4] is T1, human CRTH2. Put plainly: Intracellular calcium assay, KB8 cells. The class given is cell-based. Conditions: treatment with PGD2 (some nM), Fura-2AM. As to the method:
(§3) Each of KB8 cells, KD36 cells, and K562/neo cells was suspended in RPMI1640 medium containing 10% fetal bovine serum so as to attain a concentration of 5×10^6 cells/ml, and cultured at 37° C. for one hour in the presence of 5 μM of Fura-2AM (product of Dojindo). After completion of culturing, the cells were washed three times with HBSS through centrifugation, to thereby remove free Fura-2AM. Subsequently, the resultant cells were resuspended in HBSS containing 0.1% bovine serum albumin so as to attain a concentration of 10^6 cells/ml. The resultant suspension was placed in a quartz cell (volume: 0.4 ml), and the cell was set in spectrophotometer LS50B (product of PerkinElmer). After a sample was added to the suspension, the time-course change of the ratio of fluorescence intensities (510 nm) at excitation wavelengths of 340 nm and 380 nm was obtained through calculation by use of FL-Winlab software (product of PerkinElmer).

In assay [5] the target is T2, DP receptor. The assay can be described thus: Intracellular calcium assay, KD36 cells. It is filed as cell-based. Conditions: treatment with PGD2 (some nM), Fura-2AM. Here is the method:
as §3
On the technique in general: Calcium flux is commonly read through the fluorescence of an indicator in the cells.

The subject of the next assay is K562/neo cells. Put plainly: Intracellular calcium assay, control K562/neo cells. The class given is cell-based, human. Conditions: treatment with PGD2 (0.25-250 nM), Fura-2AM. Here is the method:
as §3

For `CCCCCC(=O)CCC1C(=O)CC(O)C1C/C=C\CCCC(=O)O` (stereo not shown) [13,14-dihydro-15-keto PGD2], at human CRTH2 [1], the “order of the degree of the binding affinity of prostanoids to human CRTH2” value (from here on “order of the degree … to human CRTH2”) is recorded as “PGD2≧13,14-dihydro-15-keto PGD2>>prostaglandin J2 (PGJ2)”; the “degree of binding affinity of human CRTH2 compared with that of the DP receptor” value was “a great difference exists between human CRTH2 and the DP receptor”. For the same compound, the “order of the degree of the binding affinity of prostanoids to the DP receptor” value (shortened to “order of the degree … to the DP receptor”) at DP receptor [2] is “PGE2>13,14-dihydro-15-keto PGD2>15-deoxydelta 12,14-PGJ2”. Besides, the “down modulation of CRTH2 (average fluorescence intensity vs non-treated control)” value at human CRTH2 [3] was “induce down modulation of CRTH2 significantly as compared with the control”.

As to `CCCCC/C=C/C=C1/C(=O)C=CC1C/C=C\CCCC(=O)O` (stereo not shown) [15-deoxydelta 12,14-PGJ2], the “order of the degree … to human CRTH2” value on human CRTH2 [1] is given as “prostaglandin J2 (PGJ2)>15-deoxydelta 12,14-PGJ2≧prostaglandin E2 (PGE2)”. Further, the “order of the degree … to the DP receptor” value on DP receptor [2] is reported as 13,14-dihydro-15-keto PGD2>15-deoxydelta 12,14-PGJ2≧TXB2.

On to `CCCCC[C@H](O)/C=C/[C@H]1C=CC(=O)[C@@H]1C/C=C\CCCC(=O)O` [PGA2, prostaglandin A2], for which the “order of the degree … to human CRTH2” value at human CRTH2 [1] is “prostaglandin E2 (PGE2)=prostaglandin A2 (PGA2)>>thromboxane B2 (TXB2)”. Also, at DP receptor [2], the “order of the degree … to the DP receptor” value is recorded as “TXB2≧PGA2”.

Regarding `CCCCC[C@H](O)/C=C/[C@H]1C(=O)C[C@H](O)[C@@H]1C/C=C\CCCC(=O)O` [PGD2, Prostaglandin D2], the “order of the degree … to human CRTH2” value on human CRTH2 [1] is “PGD2≧13,14-dihydro-15-keto PGD2”. In addition, the “degree of binding affinity of human CRTH2 compared with that of the DP receptor” value at human CRTH2 [1] was “equal to that of the binding affinity of the DP receptor to PGD2”. Further, the “order of the degree … to the DP receptor” value on DP receptor [2] is recorded as “PGD2=PGJ2”. Further, the “concentration of calcium in the cells” value on human CRTH2 [4] is reported as “increased considerably”; on DP receptor [5], “increased considerably”; in the assay on K562/neo cells, “did not vary significantly”. Besides, on human CRTH2 [3], the “down modulation of CRTH2 (average fluorescence intensity vs non-treated control)” value is “induce down modulation of CRTH2 significantly as compared with the control”.

`CCCCC[C@H](O)/C=C/[C@H]1[C@H](O)CC(=O)[C@@H]1C/C=C\CCCC(=O)O` [PGE2, prostaglandin E2]: the “order of the degree … to human CRTH2” value at human CRTH2 [1] is recorded as 15-deoxydelta 12,14-PGJ2≧prostaglandin E2 (PGE2)=prostaglandin A2 (PGA2). At DP receptor [2], the “order of the degree … to the DP receptor” value is “PGJ2>>PGE2>13,14-dihydro-15-keto PGD2”. The “down modulation of CRTH2 (average fluorescence intensity vs non-treated control)” value on human CRTH2 [3] is listed as “does not exert such an effect”.

Consider `CCCCC[C@H](O)/C=C/[C@H]1C(=O)C=C[C@@H]1C/C=C\CCCC(=O)O` [PGJ2, prostaglandin J2], for which, on human CRTH2 [1], the “order of the degree … to human CRTH2” value is 13,14-dihydro-15-keto PGD2>>prostaglandin J2 (PGJ2)>15-deoxydelta 12,14-PGJ2. Besides, on DP receptor [2], the “order of the degree … to the DP receptor” value is given as “PGD2=PGJ2>>PGE2”.

Turning to `CCCCC[C@H](O)/C=C/[C@H]1OC(O)C[C@H](O)[C@@H]1C/C=C\CCCC(=O)O` (stereo partly shown) [TXB2, thromboxane B2], at human CRTH2 [1], the “order of the degree … to human CRTH2” value was “prostaglandin A2 (PGA2)>>thromboxane B2 (TXB2)”. Also, the “order of the degree … to the DP receptor” value at DP receptor [2] is reported as 15-deoxydelta 12,14-PGJ2≧TXB2≧PGA2.
